Measurements as given in the CheMixHub viscosity set.

Experiment: xn = mol fraction of the nth substance listed

COCCO + CCCO
Conditions	viscosity [mPa·s]
298.15 K, 100 kPa, x1 = 0.1005	1.79
298.15 K, 100 kPa, x1 = 0.2016	1.68
298.15 K, 100 kPa, x1 = 0.3013	1.61
298.15 K, 100 kPa, x1 = 0.4012	1.56
298.15 K, 100 kPa, x1 = 0.5013	1.53
298.15 K, 100 kPa, x1 = 0.6005	1.52
298.15 K, 100 kPa, x1 = 0.7008	1.52
298.15 K, 100 kPa, x1 = 0.8003	1.52
298.15 K, 100 kPa, x1 = 0.9001	1.54
298.15 K, 101 kPa, x1 = 0.08067	1.901
298.15 K, 101 kPa, x1 = 0.1649	1.776
298.15 K, 101 kPa, x1 = 0.2529	1.692
298.15 K, 101 kPa, x1 = 0.3449	1.65
298.15 K, 101 kPa, x1 = 0.4413	1.624
298.15 K, 101 kPa, x1 = 0.5423	1.601
298.15 K, 101 kPa, x1 = 0.6482	1.59
298.15 K, 101 kPa, x1 = 0.7596	1.58
298.15 K, 101 kPa, x1 = 0.8767	1.571
298.15 K, 101.33 kPa, x1 = 0.0072	1.938
298.15 K, 101.33 kPa, x1 = 0.0141	1.926
298.15 K, 101.33 kPa, x1 = 0.0297	1.898
298.15 K, 101.33 kPa, x1 = 0.0471	1.867
298.15 K, 101.33 kPa, x1 = 0.062	1.844
308.15 K, 101 kPa, x1 = 0.08067	1.34
308.15 K, 101 kPa, x1 = 0.1014	1.435
308.15 K, 101 kPa, x1 = 0.1502	1.402
308.15 K, 101 kPa, x1 = 0.1649	1.264
308.15 K, 101 kPa, x1 = 0.2508	1.351
308.15 K, 101 kPa, x1 = 0.2529	1.249
308.15 K, 101 kPa, x1 = 0.3049	1.331
308.15 K, 101 kPa, x1 = 0.3449	1.227
308.15 K, 101 kPa, x1 = 0.3667	1.301
308.15 K, 101 kPa, x1 = 0.4257	1.303
308.15 K, 101 kPa, x1 = 0.4413	1.206
308.15 K, 101 kPa, x1 = 0.4838	1.28
308.15 K, 101 kPa, x1 = 0.5161	1.278
308.15 K, 101 kPa, x1 = 0.5378	1.276
308.15 K, 101 kPa, x1 = 0.5423	1.179
308.15 K, 101 kPa, x1 = 0.5647	1.279
308.15 K, 101 kPa, x1 = 0.6129	1.27
308.15 K, 101 kPa, x1 = 0.6482	1.154
308.15 K, 101 kPa, x1 = 0.67	1.252
308.15 K, 101 kPa, x1 = 0.7387	1.25
308.15 K, 101 kPa, x1 = 0.7596	1.131
308.15 K, 101 kPa, x1 = 0.7685	1.251
308.15 K, 101 kPa, x1 = 0.8213	1.251
308.15 K, 101 kPa, x1 = 0.8767	1.125
308.15 K, 101 kPa, x1 = 0.8898	1.253
308.15 K, 101 kPa, x1 = 0.9239	1.253
308.15 K, 101 kPa, x1 = 0.9491	1.26
308.15 K, 101 kPa, x1 = 0.9574	1.264
308.15 K, 101 kPa, x1 = 0.9686	1.277
308.15 K, 101 kPa, x2 = 0.0129	1.288
308.15 K, 101.33 kPa, x1 = 0.117	1.362
308.15 K, 101.33 kPa, x1 = 0.1795	1.319
308.15 K, 101.33 kPa, x1 = 0.3024	1.26
308.15 K, 101.33 kPa, x1 = 0.4526	1.207
308.15 K, 101.33 kPa, x1 = 0.5265	1.192
308.15 K, 101.33 kPa, x1 = 0.6439	1.185
308.15 K, 101.33 kPa, x1 = 0.7915	1.182
308.15 K, 101.33 kPa, x1 = 0.8693	1.174
313.15 K, 100 kPa, x1 = 0.1005	1.3
313.15 K, 100 kPa, x1 = 0.2016	1.23
313.15 K, 100 kPa, x1 = 0.3013	1.19
313.15 K, 100 kPa, x1 = 0.4012	1.16
313.15 K, 100 kPa, x1 = 0.5013	1.15
313.15 K, 100 kPa, x1 = 0.6005	1.14
313.15 K, 100 kPa, x1 = 0.7008	1.14
313.15 K, 100 kPa, x1 = 0.8003	1.15
313.15 K, 100 kPa, x1 = 0.9001	1.16
318.15 K, 101 kPa, x1 = 0.08067	1.099
318.15 K, 101 kPa, x1 = 0.1014	1.168
318.15 K, 101 kPa, x1 = 0.1502	1.142
318.15 K, 101 kPa, x1 = 0.1649	1.058
318.15 K, 101 kPa, x1 = 0.2508	1.089
318.15 K, 101 kPa, x1 = 0.2529	1.003
318.15 K, 101 kPa, x1 = 0.3049	1.079
318.15 K, 101 kPa, x1 = 0.3449	0.9764
318.15 K, 101 kPa, x1 = 0.3667	1.062
318.15 K, 101 kPa, x1 = 0.4257	1.052
318.15 K, 101 kPa, x1 = 0.4413	0.9794
318.15 K, 101 kPa, x1 = 0.4838	1.036
318.15 K, 101 kPa, x1 = 0.5161	1.029
318.15 K, 101 kPa, x1 = 0.5378	1.032
318.15 K, 101 kPa, x1 = 0.5423	0.9701
318.15 K, 101 kPa, x1 = 0.5647	1.028
318.15 K, 101 kPa, x1 = 0.6129	1.021
318.15 K, 101 kPa, x1 = 0.6482	0.9645
318.15 K, 101 kPa, x1 = 0.67	1.017
318.15 K, 101 kPa, x1 = 0.7387	1.018
318.15 K, 101 kPa, x1 = 0.7596	0.9589
318.15 K, 101 kPa, x1 = 0.7685	1.018
318.15 K, 101 kPa, x1 = 0.8213	1.016
318.15 K, 101 kPa, x1 = 0.8767	0.9552
318.15 K, 101 kPa, x1 = 0.8898	1.022
318.15 K, 101 kPa, x1 = 0.9239	1.025
318.15 K, 101 kPa, x1 = 0.9491	1.029
318.15 K, 101 kPa, x1 = 0.9574	1.028
318.15 K, 101 kPa, x1 = 0.9686	1.027
318.15 K, 101 kPa, x2 = 0.0129	1.029
